Here are results for 34 compounds from ChEMBL document CHEMBL4219204, “Structure-based design and discovery of potent and selective KDM5 inhibitors” (Bioorg Med Chem Lett, 2018).

In assay [1] the target is Lysine-specific demethylase 5A (Homo sapiens, UniProt P29375). Nature of the assay: Inhibition of KDM5A (unknown origin) preincubated with enzyme.
Assay [2] concerns the target Lysine-specific demethylase 5B (Homo sapiens, UniProt Q9UGL1). Nature of the assay: Inhibition of KDM5B (unknown origin) preincubated with enzyme.
For assay [3], the target named is Lysine-specific demethylase 5A/5B (Homo sapiens, UniProt P29375+Q9UGL1). Nature of the assay: Inhibition of KDM5A/KDM5B in human ZR-75-1 cells assessed as increase in H3K4me3 level after 72 hrs by fluorometric immunoassay. The format is cell-based.
For assay [4], the target named is T1, Lysine-specific demethylase 4C (Homo sapiens, UniProt Q9H3R0).
T1 sequence (Q9H3R0 whole entry): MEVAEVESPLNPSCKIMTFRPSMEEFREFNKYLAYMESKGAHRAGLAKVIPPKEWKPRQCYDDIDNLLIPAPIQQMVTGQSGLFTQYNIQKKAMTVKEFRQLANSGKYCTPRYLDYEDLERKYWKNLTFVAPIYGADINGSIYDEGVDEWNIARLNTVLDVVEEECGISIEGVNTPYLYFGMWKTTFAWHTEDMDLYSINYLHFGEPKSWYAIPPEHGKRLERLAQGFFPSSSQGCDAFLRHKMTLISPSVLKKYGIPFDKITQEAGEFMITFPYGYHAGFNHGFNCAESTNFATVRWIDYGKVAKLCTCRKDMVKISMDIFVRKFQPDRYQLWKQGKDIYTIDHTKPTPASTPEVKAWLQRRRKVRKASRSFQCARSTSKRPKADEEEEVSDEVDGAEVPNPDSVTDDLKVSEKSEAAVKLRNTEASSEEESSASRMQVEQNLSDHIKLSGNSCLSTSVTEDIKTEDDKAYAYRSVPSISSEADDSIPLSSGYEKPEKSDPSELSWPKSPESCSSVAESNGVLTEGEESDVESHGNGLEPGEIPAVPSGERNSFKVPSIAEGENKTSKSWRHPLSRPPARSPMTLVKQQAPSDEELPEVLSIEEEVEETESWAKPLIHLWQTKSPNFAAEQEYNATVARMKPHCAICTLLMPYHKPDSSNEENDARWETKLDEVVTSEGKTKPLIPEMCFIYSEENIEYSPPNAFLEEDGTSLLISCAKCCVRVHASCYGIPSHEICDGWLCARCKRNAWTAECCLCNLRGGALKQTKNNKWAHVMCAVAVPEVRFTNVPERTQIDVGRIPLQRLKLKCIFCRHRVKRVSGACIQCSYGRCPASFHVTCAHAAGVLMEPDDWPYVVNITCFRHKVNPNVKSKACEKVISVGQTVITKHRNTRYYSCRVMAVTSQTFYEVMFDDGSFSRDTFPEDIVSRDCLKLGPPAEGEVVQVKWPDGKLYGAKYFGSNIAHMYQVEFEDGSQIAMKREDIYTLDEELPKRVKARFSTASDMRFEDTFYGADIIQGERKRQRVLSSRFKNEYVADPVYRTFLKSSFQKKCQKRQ
The assay can be described thus: Inhibition of KDM4C (unknown origin) preincubated with enzyme.

What is called pIC50 is the IC50 on a negative log10 scale, so that one unit is a factor of ten. As usually defined, the EC50 is the concentration that produces a half-maximal response.

pIC50: −log10 of the molar value. Bounds are passed on as bounds.

Lysine-specific demethylase 5B, sequence (Q9UGL1 whole entry): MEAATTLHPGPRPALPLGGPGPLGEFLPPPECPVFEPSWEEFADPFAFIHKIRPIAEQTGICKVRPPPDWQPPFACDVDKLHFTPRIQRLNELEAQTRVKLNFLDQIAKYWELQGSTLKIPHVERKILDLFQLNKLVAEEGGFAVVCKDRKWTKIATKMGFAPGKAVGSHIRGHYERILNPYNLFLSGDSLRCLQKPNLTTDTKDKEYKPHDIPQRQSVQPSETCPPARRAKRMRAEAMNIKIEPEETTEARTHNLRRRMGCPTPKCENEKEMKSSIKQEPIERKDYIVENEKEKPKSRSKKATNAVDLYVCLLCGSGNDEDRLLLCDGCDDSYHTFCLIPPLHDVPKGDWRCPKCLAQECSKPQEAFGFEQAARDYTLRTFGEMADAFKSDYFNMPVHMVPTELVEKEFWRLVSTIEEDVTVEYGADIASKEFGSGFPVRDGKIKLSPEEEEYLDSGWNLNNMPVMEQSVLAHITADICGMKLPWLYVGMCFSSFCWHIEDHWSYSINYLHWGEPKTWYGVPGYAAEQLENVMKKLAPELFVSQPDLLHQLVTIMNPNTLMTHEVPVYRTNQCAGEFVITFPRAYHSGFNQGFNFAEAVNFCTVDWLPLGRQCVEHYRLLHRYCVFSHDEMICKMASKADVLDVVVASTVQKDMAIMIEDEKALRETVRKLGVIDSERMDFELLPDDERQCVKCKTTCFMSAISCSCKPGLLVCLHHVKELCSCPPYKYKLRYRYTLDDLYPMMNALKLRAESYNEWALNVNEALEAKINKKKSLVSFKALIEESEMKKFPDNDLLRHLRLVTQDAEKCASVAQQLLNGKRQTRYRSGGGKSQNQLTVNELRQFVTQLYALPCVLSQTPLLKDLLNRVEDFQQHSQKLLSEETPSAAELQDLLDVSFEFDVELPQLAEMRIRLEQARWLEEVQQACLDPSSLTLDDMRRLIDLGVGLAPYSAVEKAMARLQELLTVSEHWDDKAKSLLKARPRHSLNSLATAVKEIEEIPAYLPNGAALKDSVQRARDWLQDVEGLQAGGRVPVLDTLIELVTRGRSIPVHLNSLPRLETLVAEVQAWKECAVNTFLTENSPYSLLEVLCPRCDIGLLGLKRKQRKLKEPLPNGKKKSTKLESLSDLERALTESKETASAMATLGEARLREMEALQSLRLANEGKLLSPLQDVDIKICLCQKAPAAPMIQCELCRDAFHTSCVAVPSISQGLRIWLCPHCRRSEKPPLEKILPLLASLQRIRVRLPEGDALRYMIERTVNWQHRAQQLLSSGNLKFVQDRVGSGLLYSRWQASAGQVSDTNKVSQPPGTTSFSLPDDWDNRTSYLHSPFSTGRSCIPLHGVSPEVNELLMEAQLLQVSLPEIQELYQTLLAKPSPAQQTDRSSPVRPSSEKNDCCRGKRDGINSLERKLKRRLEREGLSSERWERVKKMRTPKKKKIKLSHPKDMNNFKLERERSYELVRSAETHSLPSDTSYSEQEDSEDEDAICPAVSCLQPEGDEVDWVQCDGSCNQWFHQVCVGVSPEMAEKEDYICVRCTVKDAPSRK
Lysine-specific demethylase 5A, sequence (P29375 whole entry): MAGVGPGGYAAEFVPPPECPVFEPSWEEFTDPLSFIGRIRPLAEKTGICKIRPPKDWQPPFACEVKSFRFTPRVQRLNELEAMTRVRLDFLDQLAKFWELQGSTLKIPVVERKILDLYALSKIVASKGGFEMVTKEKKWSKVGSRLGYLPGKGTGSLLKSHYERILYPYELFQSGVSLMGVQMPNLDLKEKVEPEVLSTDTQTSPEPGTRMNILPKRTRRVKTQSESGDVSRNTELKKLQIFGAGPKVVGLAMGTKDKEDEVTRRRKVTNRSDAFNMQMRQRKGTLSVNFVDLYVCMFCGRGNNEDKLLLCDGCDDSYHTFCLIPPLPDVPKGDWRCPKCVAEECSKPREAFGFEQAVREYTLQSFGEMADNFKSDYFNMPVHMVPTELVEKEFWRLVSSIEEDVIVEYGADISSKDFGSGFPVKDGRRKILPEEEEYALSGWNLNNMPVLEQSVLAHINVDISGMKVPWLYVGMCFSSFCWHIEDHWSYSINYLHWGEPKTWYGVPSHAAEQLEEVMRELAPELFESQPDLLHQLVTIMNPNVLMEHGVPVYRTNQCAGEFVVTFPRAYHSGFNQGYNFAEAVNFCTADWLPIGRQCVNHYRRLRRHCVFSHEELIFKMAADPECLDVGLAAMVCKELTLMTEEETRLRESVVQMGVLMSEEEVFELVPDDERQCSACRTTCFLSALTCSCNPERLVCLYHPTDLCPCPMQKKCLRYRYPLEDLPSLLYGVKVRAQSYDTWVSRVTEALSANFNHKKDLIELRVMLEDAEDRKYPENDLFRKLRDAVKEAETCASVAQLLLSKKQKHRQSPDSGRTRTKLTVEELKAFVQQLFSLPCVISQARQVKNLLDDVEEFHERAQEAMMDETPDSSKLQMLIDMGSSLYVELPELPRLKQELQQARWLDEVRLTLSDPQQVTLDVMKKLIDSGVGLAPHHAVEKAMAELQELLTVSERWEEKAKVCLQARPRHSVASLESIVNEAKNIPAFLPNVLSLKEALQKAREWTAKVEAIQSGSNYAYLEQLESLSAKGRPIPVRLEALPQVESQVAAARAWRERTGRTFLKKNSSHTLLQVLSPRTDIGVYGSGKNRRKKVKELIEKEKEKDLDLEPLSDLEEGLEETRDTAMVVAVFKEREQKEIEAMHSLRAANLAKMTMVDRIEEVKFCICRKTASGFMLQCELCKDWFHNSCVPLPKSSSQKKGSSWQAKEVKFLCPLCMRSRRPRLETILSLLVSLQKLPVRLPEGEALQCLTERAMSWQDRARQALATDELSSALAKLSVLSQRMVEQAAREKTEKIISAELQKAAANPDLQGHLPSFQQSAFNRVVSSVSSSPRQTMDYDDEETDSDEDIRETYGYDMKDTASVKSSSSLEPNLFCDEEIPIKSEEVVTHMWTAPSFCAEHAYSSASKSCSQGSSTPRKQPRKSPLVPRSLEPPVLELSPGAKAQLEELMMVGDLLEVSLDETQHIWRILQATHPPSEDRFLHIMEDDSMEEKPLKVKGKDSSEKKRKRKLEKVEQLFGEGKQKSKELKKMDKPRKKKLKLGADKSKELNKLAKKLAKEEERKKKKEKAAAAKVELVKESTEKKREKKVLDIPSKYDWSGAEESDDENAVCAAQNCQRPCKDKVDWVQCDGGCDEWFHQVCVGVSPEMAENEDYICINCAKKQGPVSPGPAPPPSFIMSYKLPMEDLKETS

Take `O=C(O)c1ccnc(-n2nccc2OCc2ccc(Cl)cc2F)c1`: the negative-log IC50 (pIC50) was 7.74 in assay [1] and 8.40 in assay [2]. In addition, the EC50 in assay [3] was determined as 1300 nM.
With `O=C(O)c1ccnc(-n2nccc2OCc2ccccc2F)c1`, the negative logarithm of the IC50 (pIC50) in assay [1] is 6.57; in assay [2], 7.38.
Turning to `COc1ccc(COc2ccnn2-c2cc(C(=O)O)ccn2)cc1`, the negative logarithm of the IC50 (pIC50) in assay [1] is 5.77; in assay [2] it was 8.40; in assay [4], 7.17.
On to `O=C(O)c1ccnc(-n2nccc2OCc2ccccc2)c1`, for which the values for the pIC50 in assay [1], in assay [2] and in assay [4] were 6.26, 7.62 to 9.00 and 8.30, respectively. Besides, in assay [3], the 50% effective concentration (EC50) turned out to be 7000 nM.
For the compound `Cc1ccc(-c2ccnn2-c2cc(C(=O)O)ccn2)cc1`, the negative-log IC50 (pIC50) in assay [2] is 6.70; in assay [4], 5.96.
With `CCOc1cc(Cl)ccc1COc1ccnn1-c1cc(C(=O)O)ccn1`, the negative logarithm of the IC50 (pIC50) in assay [1] was 7.72; in assay [2], 8.40; in assay [4], 7.11. Further, the EC50 in assay [3] turned out to be 1000 nM.
With `COc1cc(-c2ccnn2-c2cc(C(=O)O)ccn2)ccc1Cl`, the figures for the pIC50 in assay [2] and in assay [4] were 6.64 and 5.54, respectively.
Consider `O=C(O)c1ccnc(-n2nccc2-c2ccc(F)cc2F)c1`, for which the pIC50 in assay [2] is 6.77; in assay [4], 6.42.
As for `COc1cc(Cl)ccc1COc1ccnn1-c1cc(C(=O)O)ccn1`, the values for the pIC50 in assay [1], in assay [2] and in assay [4] were 7.92, 9.00 and 7.42, respectively. In assay [3], the EC50 is 110 nM.
For `O=C(O)c1ccnc(-n2nccc2OCc2ccc(Br)cc2)c1`, the figures for the pIC50 in assay [1] and in assay [2] were 8.22 and 8.70, respectively. Moreover, the half-maximal effective concentration (EC50) in assay [3] was 860 nM.
As for `CCc1ccc(COc2ccnn2-c2cc(C(=O)O)ccn2)cc1`, the pIC50 in assay [1] is 7.36; in assay [2], 8.52; in assay [4], 5.44. Besides, the half-maximal effective concentration (EC50) in assay [3] was determined as 1300 nM.
With `CC(Oc1ccnn1-c1cc(C(=O)O)ccn1)c1ccc(F)cc1` (stereo unspecified), the negative logarithm of the IC50 (pIC50) is 6.74 in assay [1], 7.39 in assay [2] and 6.51 in assay [4].
For the compound `Cc1cnn(-c2cc(C(=O)O)ccn2)c1OCc1ccc(F)cc1`, the results for the pIC50 in assay [1], in assay [2] and in assay [4] were 7.11, 7.27 and 5.54, respectively.
Take `Cc1ccc(-c2ccnn2-c2cc(C(=O)O)ccn2)cc1O`: the pIC50 in assay [2] is 7.12; in assay [4] it was 5.96.
`O=C(O)c1ccnc(-n2nccc2OCc2ccc(Cl)cc2)c1`: the pIC50 in assay [1] is 7.85; in assay [2], 8.40; in assay [4], 7.27. Besides, the EC50 in assay [3] was found to be 420 nM.
With `O=C(O)c1ccnc(-n2nccc2OCc2ccc(C3CC3)cc2)c1`, the pIC50 in assay [1] is 6.60; in assay [2] it was 8.10.
Turning to `CS(=O)(=O)c1ccc(-c2ccnn2-c2cc(C(=O)O)ccn2)cc1`, the results for the pIC50 in assay [2] and in assay [4] were 6.46 and 5.57, respectively.
As for `O=C(O)c1ccnc(-n2nccc2-c2ccc(F)c(F)c2)c1`, the pIC50 is 6.43 in assay [2] and 6.25 in assay [4].
`CCc1cnn(-c2cc(C(=O)O)ccn2)c1OCc1ccc(F)cc1`: the negative logarithm of the IC50 (pIC50) is 7.54 in assay [1], 7.62 in assay [2] and 6.59 in assay [4].
As for `O=C(O)c1ccnc(-n2nccc2OCc2ccc(Cl)cc2OCC2CC2)c1`, the values for the negative logarithm of the IC50 (pIC50) in assay [1], in assay [2] and in assay [4] were 7.12, 8.22 and 6.55, respectively.
Turning to `O=C(O)c1ccnc(-n2nccc2-c2ccc(O)cc2)c1`, the negative logarithm of the IC50 (pIC50) in assay [2] is 6.49; in assay [4] it was 6.35.
Turning to `O=C(O)c1ccnc(-n2nccc2OCc2ccc(Cl)cc2OCc2ccccc2)c1`, the negative-log IC50 (pIC50) in assay [1] is 7.49; in assay [2], 8.40; in assay [4], 7.13. Besides, the EC50 in assay [3] came out at 800 nM.
For the compound `O=C(O)c1ccnc(-n2nccc2-c2ccccc2)c1`, the results for the pIC50 in assay [2] and in assay [4] were 5.36 and 5.21, respectively.
Turning to `O=C(O)c1ccnc(-n2nccc2-c2cccc(F)c2)c1`, the pIC50 is 6.30 in assay [2] and 6.18 in assay [4].
As to `N#Cc1ccc(COc2ccnn2-c2cc(C(=O)O)ccn2)cc1`, the pIC50 in assay [1] was 8.40; in assay [2], 9.22; in assay [4], 7.85. The concentration for a half-maximal effect (EC50) in assay [3] is 940 nM.
For the compound `O=C(O)c1ccnc(-n2nccc2OCc2cccc(F)c2)c1`, the negative logarithm of the IC50 (pIC50) is 6.37 in assay [1] and 7.66 in assay [2]. Also, the EC50 in assay [3] turned out to be 12000 nM.
Consider `CN(C)CCc1cnn(-c2cc(C(=O)O)ccn2)c1OCc1ccc(F)cc1`, for which the negative-log IC50 (pIC50) in assay [1] is 8.52; in assay [2], 9.00; in assay [4], 7.72. Moreover, the concentration giving a half-maximal response (EC50) in assay [3] was 4600 nM.
Regarding `O=C(O)c1ccnc(-n2ncc(CCO)c2OCc2ccc(F)cc2)c1`, the figures for the pIC50 in assay [1], in assay [2] and in assay [4] were 7.10, 7.17 and less than 5.70, respectively.
Consider `O=C(O)c1ccnc(-n2nccc2-c2ccc(F)cc2)c1`, for which the negative-log IC50 (pIC50) in assay [2] was 6.62; in assay [4] it was 6.31.
In the case of `O=C(O)c1ccnc(-n2nccc2-c2cccc(O)c2)c1`, the negative-log IC50 (pIC50) was 6.92 in assay [2] and 6.39 in assay [4].
Consider `O=C(O)c1ccnc(-n2nccc2OCc2ccc(C(F)(F)F)cc2)c1`, for which the pIC50 in assay [1] was 6.62.
Regarding `Cc1ccc(COc2ccnn2-c2cc(C(=O)O)ccn2)cc1`, the values for the pIC50 in assay [1], in assay [2] and in assay [4] were 7.49, 8.40 and 5.96, respectively. In addition, the EC50 in assay [3] is 990 nM.
`O=C(O)c1ccnc(-n2nccc2OCc2ccc(F)cc2)c1`: the negative logarithm of the IC50 (pIC50) in assay [1] was 7.42; in assay [2], 8.40; in assay [4], 7.62. The half-maximal effective concentration (EC50) in assay [3] came out at 840 nM.
Consider `COc1cc(-c2ccnn2-c2cc(C(=O)O)ccn2)ccc1C`, for which the results for the pIC50 in assay [2] and in assay [4] were 6.27 and 5.74, respectively.
